Measured values taken from patent publication US20210189444A1, “METHOD OF PURIFYING CANNABINOIDS FROM YEAST FERMENTATION BROTH” (Demetrix, Inc., priority 2019, published 2021).

Assay: solubility of CBGA and CBG in water as a function of pH (solubility curves, FIG. 4)

Q: For `CCCCCc1cc(O)c(C/C=C(\C)CCC=C(C)C)c(O)c1C(=O)O` [CBGA, cannabigerolic acid], which “solubility in aqueous phase” value (pH 11.5 (25% KOH), water:IPM 4:1) is on record?
A: soluble

Q: And the solubility in water (pH <2)?
A: insoluble
